From patent US11807650B2, “NMDA receptor modulators and uses thereof” (Novartis AG, priority 2016, dated 2023)

Biological target: T1, human GRIN1 (transcript variant NR1-3) and GRIN2D expressed in Xenopus oocytes (Homo sapiens, UniProt O15399)
T1 construct: GenScript (GRIN2D synthesis) SC115601; host or cells: Xenopus oocytes injected with cRNA (1 GluN1 : 2 GluN2)
Test: NR2D oocyte potentiation assay (two-electrode voltage clamp)
Assay type: cell-based
Conditions: 10 uM test compound; glutamate and glycine 10 μM each; holding potential −40 mV
Description: NR2D Oocyte Potentiation Assay. Xenopus oocytes (Xenopus 1, Dexter, Mich.) were initially separated from the lobes of an ovary using surgical forceps; they were then defolliculated by constant agitation at room temperature in OR-2 buffer (82.5 mM NaCl; 2.5 mM KCl; 1 mM MgCl2; 5 mM HEPES; pH 7.4) containing 2 mg/ml collagenase Type 1 (Fisher Scientific, USA) for 1.5-2 hours. The cells were then gently aspirated with a Pasteur pipette to remove the follicular tissue; this was followed by washing three times with OR-2 to remove all traces of collagenase. The oocytes were then washed in ND-96 (96 mM NaCl, 2 mM KCl, 1.8 mM CaCl2, 1 mM MgCl2, 5 mM HEPES, 50 ng/L gentamycin, 100 units/ml penicillin and 100 μg/ml streptomycin; pH 7.6) three times and this was followed by incubation in ND-96 at room temperature with mild agitation for 15 minutes; subsequently they were stored for at least 2 hours at 16° C. before sorting and selection for injection. Oocytes selected for injection were incubated overnight in ND-96 at 16° C.
The human GRIN1 (transcript variant NR1-3 (Origene, SKU #: SC115601, Rockville, Md.) and GRIN2D (NCBI locus NM_000836, sequence optimized and synthesized by GenScript) were linearized and transcribed using the mMessage mMachine kit (Life Technologies) and promoters SP6 (for GluN1) and T7 (for GluN2D). cRNAs were mixed together at a ratio of 1 GluN1:2 GluN2. Each oocyte was injected with 50 nL of cRNA and stored in ND96 (96 mM NaCl, 2 mM KCl, 1.8 mM CaCl2, 1 mM MgCl2, 5 mM HEPES, 50 ng/L gentamycin, 100 units/ml penicillin and 100 μg/ml streptomycin; pH 7.6) at 16° C. for 72 h prior to recording.
Currents were recorded using a two-electrode voltage-clamp amplifier (Oocyte Clamp OC-725C; Warner Instrument Corp, Hamden, Conn.), and digitized using Digidata 1550A and pClamp (v. 10) software (Molecular Devices, Sunnyvale, Calif.). Electrodes were filled with 3 M KCl and had resistances that ranged from 0.2-1 MO. All measurements were made at a holding potential of −40 mV. Cells were continuously perfused with oocyte recording solution containing 90 mM NaCl, 1 mM KCl, 0.5 mM BaCl2, and 10 mM HEPES (Ph 7.4). Glutamate and Glycine (co-agonists) were applied at respective concentrations of 10 μM each. Co-agonists were applied until a plateau was reached, and test compounds were then added in the continued presence of co-agonists until a new plateau was reached. After the addition of the last test compound concentration, the oocyte was washed with oocyte recording buffer. Fraction of current remaining was calculated as [(current in presence of test compound−background current)/(co-agonist current−background current)] and IC50 values were computed using Prism 6.0 (Graphpad).

T1 sequence (O15399 28-1336, other chains not shown): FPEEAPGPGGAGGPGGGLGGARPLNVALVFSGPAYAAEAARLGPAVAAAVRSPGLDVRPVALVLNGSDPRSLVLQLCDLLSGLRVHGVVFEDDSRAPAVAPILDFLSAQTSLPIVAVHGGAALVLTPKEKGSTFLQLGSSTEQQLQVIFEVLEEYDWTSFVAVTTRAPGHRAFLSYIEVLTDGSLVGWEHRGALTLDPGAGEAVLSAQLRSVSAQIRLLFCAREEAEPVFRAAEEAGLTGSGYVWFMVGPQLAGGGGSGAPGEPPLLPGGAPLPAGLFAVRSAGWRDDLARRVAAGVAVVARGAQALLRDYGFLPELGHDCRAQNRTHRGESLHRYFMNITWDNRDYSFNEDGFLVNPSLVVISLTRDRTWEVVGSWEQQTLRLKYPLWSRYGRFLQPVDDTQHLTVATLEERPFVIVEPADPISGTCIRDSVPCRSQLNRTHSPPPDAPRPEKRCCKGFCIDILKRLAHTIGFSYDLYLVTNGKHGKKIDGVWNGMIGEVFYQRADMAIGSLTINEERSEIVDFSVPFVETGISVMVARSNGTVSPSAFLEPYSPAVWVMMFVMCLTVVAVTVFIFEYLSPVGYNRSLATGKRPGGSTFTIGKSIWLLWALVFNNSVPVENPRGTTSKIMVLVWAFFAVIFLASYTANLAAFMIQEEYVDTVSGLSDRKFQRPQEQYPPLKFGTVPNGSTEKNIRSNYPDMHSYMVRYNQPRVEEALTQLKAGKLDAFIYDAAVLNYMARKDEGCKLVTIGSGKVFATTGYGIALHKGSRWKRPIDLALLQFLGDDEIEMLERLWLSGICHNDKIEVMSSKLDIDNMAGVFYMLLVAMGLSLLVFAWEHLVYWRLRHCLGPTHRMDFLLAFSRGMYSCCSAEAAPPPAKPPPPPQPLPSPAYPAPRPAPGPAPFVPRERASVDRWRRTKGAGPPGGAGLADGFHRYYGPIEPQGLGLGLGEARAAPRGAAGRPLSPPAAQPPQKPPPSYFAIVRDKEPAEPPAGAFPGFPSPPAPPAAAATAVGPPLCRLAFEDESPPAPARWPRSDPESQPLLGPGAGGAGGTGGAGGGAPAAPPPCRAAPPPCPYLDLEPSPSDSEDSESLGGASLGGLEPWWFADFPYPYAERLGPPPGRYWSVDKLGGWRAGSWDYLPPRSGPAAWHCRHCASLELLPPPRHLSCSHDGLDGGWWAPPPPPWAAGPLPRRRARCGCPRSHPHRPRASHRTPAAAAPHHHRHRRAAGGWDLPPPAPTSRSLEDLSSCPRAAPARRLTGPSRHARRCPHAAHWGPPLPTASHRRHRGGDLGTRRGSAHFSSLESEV

Q: How did the activation at 10 µM turn out when `CC(C)(C)c1ncc(-c2nc3n(c(=O)c2C#N)C[C@H](CO)CS3)cc1F` [Example 158, (R)-8-(6-(tert-butyl)-5-fluoropyridin-3-yl)-3-(hydroxymethyl)-6-oxo-3,4-dihydro-2H,6H-pyrimido[2,1-b][1,3]thiazine-7-carbonitrile] was run?
A: > 1000%

Q: With `Cc1c(-c2ccc(C(C)(C)C)cc2)nc2n(c1=O)CCCS2` [Example 29, 8-(4-(tert-butyl)phenyl)-7-methyl-3,4-dihydro-2H,6H-pyrimido[2,1-b][1,3]thiazin-6-one] as the compound, how does the activation at 10 µM read?
A: 10 to 100%

Q: How did the activation at 10 µM turn out when `CSc1c(-c2ccc(C(C)(C)C)cc2)nc2n(c1=O)CCCC2` [Example 25, 2-(4-(tert-butyl)phenyl)-3-(methylthio)-6,7,8,9-tetrahydro-4H-pyrido[1,2-a]pyrimidin-4-one] was run?
A: < 10%

Q: Which activation at 10 µM does the source give for `CC(C)(C)c1ccc(-c2cc3n(c(=O)c2C#N)CCCS3)cc1` [Example 68, 8-(4-(tert-butyl)phenyl)-6-oxo-3,4-dihydro-2H,6H-pyrido[2,1-b][1,3]thiazine-7-carbonitrile] here?
A: > 1000%

Q: With `CC(C)(O)c1ccc(-c2nc3n(c(=O)c2C#N)CCCS3)cn1` [Example 83, 8-(6-(2-hydroxypropan-2-yl)pyridin-3-yl)-6-oxo-3,4-dihydro-2H,6H-pyrimido[2,1-b][1,3]thiazine-7-carbonitrile] as the compound, how does the activation at 10 µM read?
A: 10 to 100%

Q: With `Cc1ccc2nc(-c3cnc(C(C)(C)C)nc3)c(C#N)c(=O)n2c1` [Example 22, 2-(2-(tert-butyl)pyrimidin-5-yl)-7-methyl-4-oxo-4H-pyrido[1,2-a]pyrimidine-3-carbonitrile] as the compound, how does the activation at 10 µM read?
A: 100 to 500%

Q: How did the activation at 10 µM turn out when `C[C@H]1CSc2cc(-c3ccc(C4(C)CC4)nc3)c(C#N)c(=O)n2C1` [Example 117, (R)-3-methyl-8-(6-(1-methylcyclopropyl)pyridin-3-yl)-6-oxo-3,4-dihydro-2H,6H-pyrido[2,1-b][1,3]thiazine-7-carbonitrile] was run?
A: > 1000%

Q: How did the activation at 10 µM turn out when `CC(C)(C)c1ccc(-c2nc3ccccn3c(=O)c2C#N)cc1` [Example 18, 2-(4-(tert-butyl)phenyl)-4-oxo-4H-pyrido[1,2-a]pyrimidine-3-carbonitrile] was run?
A: 100 to 500%

Q: `CC(C)(C)c1ncc(-c2nc3n(c(=O)c2C#N)CCCS3)cc1O` [Example 127, 8-(6-(tert-butyl)-5-hydroxypyridin-3-yl)-6-oxo-3,4-dihydro-2H,6H-pyrimido[2,1-b][1,3]thiazine-7-carbonitrile] was tested. Which activation at 10 µM did it give?
A: > 1000%

Q: Which activation at 10 µM does the source give for `CC(C)(C)OC(=O)NCC1CSc2nc(-c3ccc(C(C)(C)C)nc3)c(C#N)c(=O)n2C1` (centres unmarked) [Example 144, tert-butyl ((8-(6-(tert-butyl)pyridin-3-yl)-7-cyano-6-oxo-3,4-dihydro-2H,6H-pyrimido[2,1-b][1,3]thiazin-3-yl)methyl)carbamate] here?
A: > 1000%

Q: How did the activation at 10 µM turn out when `CC1(c2ccc(-c3nc4n(c(=O)c3C#N)CCCS4)cn2)CC1(F)F` (centres unmarked) [Example 110, 8-(6-(2,2-difluoro-1-methylcyclopropyl)pyridin-3-yl)-6-oxo-3,4-dihydro-2H,6H-pyrimido[2,1-b][1,3]thiazine-7-carbonitrile] was run?
A: 500 to 1000%

Q: For `CCOC(=O)c1ccc(-c2nc3n(c(=O)c2C#N)CC(C)CS3)cn1` (centres unmarked) [Example 84, ethyl 5-(7-cyano-3-methyl-6-oxo-3,4-dihydro-2H,6H-pyrimido[2,1-b][1,3]thiazin-8-yl)picolinate], which activation at 10 µM is on record?
A: < 10%

Q: How did the activation at 10 µM turn out when `C[S+]([O-])c1c(-c2ccc(C(C)(C)C)cc2)nc2n(c1=O)CCCC2` (centres unmarked) [Example 26, 2-(4-(tert-butyl)phenyl)-3-(methylsulfinyl)-6,7,8,9-tetrahydro-4H-pyrido[1,2-a]pyrimidin-4-one] was run?
A: < 10%

Q: With `CC1CSc2nc(-c3ccc(N4CC(C)(C)C4)nc3)c(C#N)c(=O)n2C1` (centres unmarked) [Example 52, 8-(6-(3,3-dimethylazetidin-1-yl)pyridin-3-yl)-3-methyl-6-oxo-3,4-dihydro-2H,6H-pyrimido[2,1-b][1,3]thiazine-7-carbonitrile] as the compound, how does the “NR2D Oocyte % Potentiation @ 10 uM” value read?
A: Inhibitor
